The subject of this assay is BDF1 mice, B16 melanoma ip, median survival T/C. Description: NCI In Vivo Anticancer Drug Screen. Data for tumor model B16 Melanoma (intraperitoneal) in B6D2F1 (BDF1) mice. The settings on record: endpoint: median survival time, higher = longer survival. How it is done: The antitumor activity of compounds was measured in mice bearing transplantable tumors. Survival or tumor size were measured and the results are expressed as the measurement made in the treated group (T) divided by the measurement made in the vehicle treated control group (C). The tumor model used in this assay is B16 Melanoma (intraperitoneal) in B6D2F1 (BDF1) mice

The mark [1] stands for this setting: dose: 25.0 mg/kg/injection, schedule: Q01DX009 (ip), vehicle: Klucel (hydroxypropylcellulose) (HPC).
Where [2] appears, read: dose: 50.0 mg/kg/injection, schedule: Q01DX009 (ip), vehicle: Klucel (hydroxypropylcellulose) (HPC).
Where [3] appears, read: dose: 50.0 mg/kg/injection, schedule: Q01DX009 (ip), vehicle: saline.
[4] abbreviates: dose: 100.0 mg/kg/injection, schedule: Q01DX009 (ip), vehicle: Klucel (hydroxypropylcellulose) (HPC).
Setting [5] is: dose: 200.0 mg/kg/injection, schedule: Q01DX009 (ip), vehicle: Klucel (hydroxypropylcellulose) (HPC).

Where “and” joins values, the source holds several entries; their conditions need not be identical. Equal entries are not always repeated. Inconclusive results and toxic doses are left out.

Turning to `CO[C@H]1C[C@](C)(O)Cc2cc3c(c(O)c21)C(=O)c1c(O)cc2c(c1C3=O)O[C@@H]1O[C@@]2(C)[C@H](O)[C@@H](N(C)C)[C@@H]1O`, the T/C was 110 % of control (dose: 0.78 mg/kg/injection, schedule: Q01DX009 (ip), vehicle: other); 118 % of control (dose: 1.56 mg/kg/injection, schedule: Q01DX009 (ip), vehicle: other); 169 % of control (dose: 2.3 mg/kg/injection, schedule: Q01DX005 (ip), vehicle: other); 97 % of control (dose: 2.3 mg/kg/injection, schedule: Q01DX005 (iv), vehicle: other); 194 % of control (dose: 2.3 mg/kg/injection, schedule: Q01DX009 (ip), vehicle: other); 159 % of control (dose: 3.12 mg/kg/injection, schedule: Q01DX009 (ip), vehicle: other). Also, the T/C is 167 % of control (dose: 3.13 mg/kg/injection, schedule: Q01DX009 (ip), vehicle: other); 200 % of control (dose: 4.5 mg/kg/injection, schedule: Q01DX005 (ip), vehicle: other); 110 % of control (dose: 4.5 mg/kg/injection, schedule: Q01DX005 (iv), vehicle: other); 95 % of control (dose: 4.5 mg/kg/injection, schedule: Q01DX005 (oral), vehicle: other); 185 % of control (dose: 4.5 mg/kg/injection, schedule: Q01DX009 (ip), vehicle: other); 99 % of control (dose: 4.5 mg/kg/injection, schedule: Q01DX009 (oral), vehicle: other). Moreover, the T/C is 173 % of control and 177 % of control and 183 % of control (dose: 6.25 mg/kg/injection, schedule: Q01DX009 (ip), vehicle: other); 213 % of control (dose: 9.0 mg/kg/injection, schedule: Q01DX005 (ip), vehicle: other); 112 % of control (dose: 9.0 mg/kg/injection, schedule: Q01DX005 (iv), vehicle: other); 97 % of control (dose: 9.0 mg/kg/injection, schedule: Q01DX005 (oral), vehicle: other); 272 % of control (dose: 9.0 mg/kg/injection, schedule: Q01DX009 (ip), vehicle: other); 107 % of control (dose: 9.0 mg/kg/injection, schedule: Q01DX009 (oral), vehicle: other). The T/C was 203 % of control (dose: 10.8 mg/kg/injection, schedule: Q04DX003 (ip), vehicle: lactic acid); 167 % of control and 191 % of control and 209 % of control (dose: 12.5 mg/kg/injection, schedule: Q01DX009 (ip), vehicle: other); 158 % of control (dose: 18.0 mg/kg/injection, schedule: Q01DX001 (ip), vehicle: other); 100 % of control (dose: 18.0 mg/kg/injection, schedule: Q01DX001 (iv), vehicle: other); 236 % of control (dose: 18.0 mg/kg/injection, schedule: Q01DX005 (ip), vehicle: other); 108 % of control (dose: 18.0 mg/kg/injection, schedule: Q01DX005 (oral), vehicle: other). The T/C (dose: 18.0 mg/kg/injection, schedule: Q01DX009 (oral), vehicle: other) is 116 % of control; the T/C (dose: 25.0 mg/kg/injection, schedule: Q01DX001 (ip), vehicle: water) was 100 % of control; the T/C (dose: 36.0 mg/kg/injection, schedule: Q01DX001 (ip), vehicle: other) is 153 % of control; the T/C (dose: 36.0 mg/kg/injection, schedule: Q01DX001 (oral), vehicle: other) is 103 % of control; the T/C (dose: 36.0 mg/kg/injection, schedule: Q01DX005 (oral), vehicle: other) is 121 % of control; the T/C (dose: 72.0 mg/kg/injection, schedule: Q01DX001 (oral), vehicle: other) is 119 % of control.
With `CCC(=O)[O][Bi]([c]1ccccc1)[c]1ccccc1`, the T/C by setting is: (dose: 3.0 mg/kg/injection, schedule: Q01DX009 (ip), vehicle: Klucel (hydroxypropylcellulose) (HPC)) 90 % of control; (dose: 6.0 mg/kg/injection, schedule: Q01DX009 (ip), vehicle: Klucel (hydroxypropylcellulose) (HPC)) 99 % of control; (dose: 12.0 mg/kg/injection, schedule: Q01DX009 (ip), vehicle: Klucel (hydroxypropylcellulose) (HPC)) 94 % of control; (dose: 24.0 mg/kg/injection, schedule: Q01DX009 (ip), vehicle: Klucel (hydroxypropylcellulose) (HPC)) 91 % of control.
For `NC1(C(=O)O)CSSC1`, the T/C reads like this: under setting [1], 95 % of control; under setting [2], 100 % of control.
Consider `O=C(C[n+]1ccc2ccccc2c1)c1ccccc1`, for which the T/C (dose: 12.5 mg/kg/injection, schedule: Q01DX009 (ip), vehicle: saline) was 86 % of control; the T/C (dose: 25.0 mg/kg/injection, schedule: Q01DX009 (ip), vehicle: saline) was 86 % of control; the T/C under setting [3] was 100 % of control.
For the compound `CCCCCCCCCC1(C)OCC(COC(N)=O)O1` (stereo not drawn), the T/C under setting [1] was 90 % of control; the T/C under setting [2] was 90 % of control; the T/C under setting [4] is 92 % of control; the T/C under setting [5] was 95 % of control; the T/C (dose: 400.0 mg/kg/injection, schedule: Q01DX009 (ip), vehicle: Klucel (hydroxypropylcellulose) (HPC)) is 95 % of control.
On to `CCCCn1ccnc1C`, for which the T/C (dose: 6.25 mg/kg/injection, schedule: Q01DX009 (ip), vehicle: water) was 106 % of control; the T/C (dose: 12.5 mg/kg/injection, schedule: Q01DX009 (ip), vehicle: water) was 91 % of control; the T/C (dose: 25.0 mg/kg/injection, schedule: Q01DX009 (ip), vehicle: water) is 101 % of control; the T/C (dose: 50.0 mg/kg/injection, schedule: Q01DX009 (ip), vehicle: water) was 102 % of control.
In the case of `C=CC=O`, the T/C (dose: 0.45 mg/kg/injection, schedule: Q01DX009 (ip), vehicle: saline) is 95 % of control; the T/C (dose: 0.9 mg/kg/injection, schedule: Q01DX009 (ip), vehicle: saline) was 88 % of control; the T/C (dose: 1.8 mg/kg/injection, schedule: Q01DX009 (ip), vehicle: saline) is 90 % of control.
For the compound `Cc1ccc(NC(=O)COc2cc(Cl)c(Cl)cc2Cl)c([N+](=O)[O-])c1`, the T/C runs as follows: under setting [4], 93 % of control; under setting [5], 100 % of control.
As to `NC(=O)N1OCC(N)C1=O` (stereo not drawn), the T/C under setting [3] is 95 % of control; the T/C (dose: 100.0 mg/kg/injection, schedule: Q01DX009 (ip), vehicle: saline) is 103 % of control; the T/C (dose: 200.0 mg/kg/injection, schedule: Q01DX009 (ip), vehicle: saline) was 95 % of control.
In the case of `O=NN(CCCl)C(=O)NC1CCC(=O)NC1=O` (stereo not drawn), the T/C is 114 % of control (dose: 0.09 mg/kg/injection, schedule: Q01DX009 (ip), vehicle: saline); 111 % of control (dose: 0.18 mg/kg/injection, schedule: Q01DX009 (ip), vehicle: saline); 118 % of control (dose: 0.35 mg/kg/injection, schedule: Q01DX009 (ip), vehicle: saline); 114 % of control (dose: 0.7 mg/kg/injection, schedule: Q01DX009 (ip), vehicle: saline); 119 % of control (dose: 1.0 mg/kg/injection, schedule: Q01DX009 (ip), vehicle: saline with Tween-80); 152 % of control (dose: 1.1 mg/kg/injection, schedule: Q01DX009 (ip), vehicle: saline). Also, the T/C reads like this: (dose: 1.6 mg/kg/injection, schedule: Q01DX009 (ip), vehicle: saline) 165 % of control; (dose: 2.0 mg/kg/injection, schedule: Q01DX009 (ip), vehicle: saline with Tween-80) 161 % of control; (dose: 4.0 mg/kg/injection, schedule: Q01DX009 (ip), vehicle: saline with Tween-80) 193 % of control; (dose: 7.5 mg/kg/injection, schedule: Q01DX001 (ip), vehicle: saline + alcohol) 166 % of control; (dose: 8.0 mg/kg/injection, schedule: Q01DX009 (ip), vehicle: saline with Tween-80) 123 % of control; (dose: 15.0 mg/kg/injection, schedule: Q01DX001 (ip), vehicle: saline + alcohol) 245 % of control. For the same compound, the T/C (dose: 16.0 mg/kg/injection, schedule: Q01DX009 (ip), vehicle: saline with Tween-80) was 93 % of control.
As for `O=C1c2ccccc2C(=O)N1CCC[P+](c1ccccc1)(c1ccccc1)c1ccccc1`, the T/C was 100 % of control (dose: 1.56 mg/kg/injection, schedule: Q01DX009 (ip), vehicle: Klucel (hydroxypropylcellulose) (HPC)); 102 % of control (dose: 3.12 mg/kg/injection, schedule: Q01DX009 (ip), vehicle: Klucel (hydroxypropylcellulose) (HPC)); 96 % of control (dose: 6.25 mg/kg/injection, schedule: Q01DX009 (ip), vehicle: Klucel (hydroxypropylcellulose) (HPC)); 100 % of control (dose: 12.5 mg/kg/injection, schedule: Q01DX009 (ip), vehicle: Klucel (hydroxypropylcellulose) (HPC)).

(Values after PubChem BioAssay AID192 (DTP/NCI, 2004).)
